Values quoted from earlier work as cited in EP2893919B1, “Formulation of aprepitant with enhanced solubility” (SANOFI, priority 2014, dated 2015).

Tests used:
[1] = pH range 2 to 10
[2] = test system: Caco-2

Question: Which results are given for `C[C@@H](O[C@H]1OCCN(Cc2n[nH]c(=O)[nH]2)[C@H]1c1ccc(F)cc1)c1cc(C(F)(F)F)cc(C(F)(F)F)c1` [Aprepitant, 5-([(2R,3S)-2-((R)-1-[3,5-bis(trifluoromethyl)phenyl]ethoxy)-3-(4-fluorophenyl)morpholino]methyl)-1H-1,2,4-triazol-3(2H)-one]?
Answer: solubility in water [1]: < 10 µg/mL; Caco-2 permeability [2]: 7.85e-06 cm/s
